In ChEMBL document CHEMBL1153634, “Synthesis of novel triterpenoid (lupeol) derivatives and their in vivo antihyperglycemic and antidyslipidemic activity” (2009):
Activity calls are given as the source filed them. No cut-off for these calls is given here.

Assays:
Rattus norvegicus [1] = assay: Antihyperglycemic activity in sucrose challenged albino Sprague-Dawley rat STZ-S model assessed as decrease in blood glucose level at 100 mg/kg, po preincubated 30 min before sucrose challenge measured 5 hrs after last dose; assay type: functional; parameters: scale not given: the % may be the effect or the level left
Rattus norvegicus [2] = assay: Antihyperglycemic activity in sucrose challenged albino Sprague-Dawley rat STZ-S model assessed as decrease in blood glucose level at 100 mg/kg, po preincubated 30 min before sucrose challenge measured 24 hrs after last dose; assay type: functional; parameters: scale not given: the % may be the effect or the level left
Syrian golden hamster [3] = assay: Antidyslipidemic activity in high fat diet fed dyslipidemic golden Syrian hamster model assessed as change in food intake at 50 mg/kg, po administered once daily from day 4 to day 10 measured on day 10 after 2 hrs of last dose relative to baseline; assay type: functional, Mesocricetus auratus
Syrian golden hamster [4] = assay: Antidyslipidemic activity in high fat diet fed dyslipidemic golden Syrian hamster model assessed as change in plasma triglyceride level at 50 mg/kg, po administered once daily from day 4 to day 10 measured on day 10 after 2 hrs of last dose relative to baseline; assay type: functional, Mesocricetus auratus
Syrian golden hamster [5] = assay: Antidyslipidemic activity in high fat diet fed dyslipidemic golden Syrian hamster model assessed as change in plasma cholesterol level at 50 mg/kg, po administered once daily from day 4 to day 10 measured on day 10 after 2 hrs of last dose relative to baseline; assay type: functional, Mesocricetus auratus
Syrian golden hamster [6] = assay: Antidyslipidemic activity in high fat diet fed dyslipidemic golden Syrian hamster model assessed as change in plasma HDL-cholesterol level at 50 mg/kg, po administered once daily from day 4 to day 10 measured on day 10 after 2 hrs of last dose relative to baseline; assay type: functional, Mesocricetus auratus
Syrian golden hamster [7] = assay: Antidyslipidemic activity in high fat diet fed dyslipidemic golden Syrian hamster model assessed as change in plasma […] level at 50 mg/kg, po administered once daily from day 4 to day 10 measured on day 10 after 2 hrs of last dose relative to baseline; assay type: functional, Mesocricetus auratus
Syrian golden hamster [8] = assay: Antidyslipidemic activity in high fat diet fed dyslipidemic golden Syrian hamster model assessed as change in plasma glycerol level at 50 mg/kg, po administered once daily from day 4 to day 10 measured on day 10 after 2 hrs of last dose relative to baseline; assay type: functional, Mesocricetus auratus
Syrian golden hamster [9] = assay: Antidyslipidemic activity in high fat diet fed dyslipidemic golden Syrian hamster model assessed as change in plasma HDL to cholesterol ratio at 50 mg/kg, po administered once daily from day 4 to day 10 measured on day 10 after 2 hrs of last dose relative to baseline; assay type: functional, Mesocricetus auratus
Syrian golden hamster [10] = assay: Antidyslipidemic activity in high fat diet fed dyslipidemic golden Syrian hamster model assessed as change in plasma triglyceride level at 108 mg/kg, po administered once daily from day 4 to day 10 measured on day 10 after 2 hrs of last dose; assay type: functional, Mesocricetus auratus
Syrian golden hamster [11] = assay: Antidyslipidemic activity in high fat diet fed dyslipidemic golden Syrian hamster model assessed as change in plasma cholesterol level at 108 mg/kg, po administered once daily from day 4 to day 10 measured on day 10 after 2 hrs of last dose; assay type: functional, Mesocricetus auratus
Syrian golden hamster [12] = assay: Antidyslipidemic activity in high fat diet fed dyslipidemic golden Syrian hamster model assessed as change in plasma HDL-cholesterol level at 108 mg/kg, po administered once daily from day 4 to day 10 measured on day 10 after 2 hrs of last dose; assay type: functional, organism-based; parameters: dose 108 mg/kg; conditions: Mesocricetus auratus
Syrian golden hamster [13] = assay: Antidyslipidemic activity in high fat diet fed dyslipidemic golden Syrian hamster model assessed as change in plasma glycerol level at 108 mg/kg, po administered once daily from day 4 to day 10 measured on day 10 after 2 hrs of last dose; assay type: functional, Mesocricetus auratus
Syrian golden hamster [14] = assay: Antidyslipidemic activity in high fat diet fed dyslipidemic golden Syrian hamster model assessed as change in plasma HDL to cholesterol ratio at 108 mg/kg, po administered once daily from day 4 to day 10 measured on day 10 after 2 hrs of last dose; assay type: functional, Mesocricetus auratus
Syrian golden hamster [15] = assay: Antidyslipidemic activity in high fat diet fed dyslipidemic golden Syrian hamster model assessed as change in plasma triglyceride level at 100 mg/kg, po administered once daily from day 4 to day 10 measured on day 10 after 2 hrs of last dose relative to baseline; assay type: functional, Mesocricetus auratus
Syrian golden hamster [16] = assay: Antidyslipidemic activity in high fat diet fed dyslipidemic golden Syrian hamster model assessed as change in plasma cholesterol level at 100 mg/kg, po administered once daily from day 4 to day 10 measured on day 10 after 2 hrs of last dose relative to baseline; assay type: functional, Mesocricetus auratus
Syrian golden hamster [17] = assay: Antidyslipidemic activity in high fat diet fed dyslipidemic golden Syrian hamster model assessed as change in plasma glycerol level at 100 mg/kg, po administered once daily from day 4 to day 10 measured on day 10 after 2 hrs of last dose relative to baseline; assay type: functional, Mesocricetus auratus
Syrian golden hamster [18] = assay: Antidyslipidemic activity in high fat diet fed dyslipidemic golden Syrian hamster model assessed as change in plasma free fatty acid level at 100 mg/kg, po administered once daily from day 4 to day 10 measured on day 10 after 2 hrs of last dose relative to baseline; assay type: functional, Mesocricetus auratus
Syrian golden hamster [19] = assay: Antidyslipidemic activity in high fat diet fed dyslipidemic golden Syrian hamster model assessed as change in plasma HDL-cholesterol level at 100 mg/kg, po administered once daily from day 4 to day 10 measured on day 10 after 2 hrs of last dose relative to baseline; assay type: functional, Mesocricetus auratus
Syrian golden hamster [20] = assay: Antidyslipidemic activity in high fat diet fed dyslipidemic golden Syrian hamster model assessed as change in plasma HDL to cholesterol ratio at 100 mg/kg, po administered once daily from day 4 to day 10 measured on day 10 after 2 hrs of last dose relative to baseline; assay type: functional, Mesocricetus auratus

| SMILES | Activity (Rattus norvegicus [1]) [%] | Activity (Rattus norvegicus [2]) [%] | Activity (Syrian golden hamster [3]) [%] | Activity (Syrian golden hamster [4]) [%] | Activity (Syrian golden hamster [5]) [%] | Activity (Syrian golden hamster [6]) [%] | Activity (Syrian golden hamster [7]) [%] | Activity (Syrian golden hamster [8]) [%] | Activity (Syrian golden hamster [9]) [%] | also measured |
| --- | --- | --- | --- | --- | --- | --- | --- | --- | --- | --- |
| C=C(C)[C@@H]1CC[C@]2(C)CC[C@]3(C)[C@H](CC[C@@H]4[C@@]5(C)CC[C@H](OC(=O)c6ccc([N+](=O)[O-])cc6)C(C)(C)[C@@H]5CC[C@]43C)[C@@H]12 | -14.8 | -21.1 | 4 | -20 | -34 | -30 | 6 | -21 | 4 |  |
| C=C(C)[C@@H]1CC[C@]2(C)CC[C@]3(C)[C@H](CC[C@@H]4[C@@]5(C)CC[C@H](OC(=O)c6cccnc6)C(C)(C)[C@@H]5CC[C@]43C)[C@@H]12 | -18.3 | -25 | 8 | -40 | -24 | 5 | 2 | -30 | 57 |  |
| CN(C)C(=N)NC(=N)N [METFORMIN] | -23.5 | -26.5 |  |  |  |  |  |  |  |  |
| CC(C)OC(=O)C(C)(C)Oc1ccc(C(=O)c2ccc(Cl)cc2)cc1 [FENOFIBRATE] |  |  |  |  |  |  |  |  |  | Activity (Syrian golden hamster [10]): -42%; Activity (Syrian golden hamster [11]): -18%; Activity (Syrian golden hamster [12]): inactive; Activity (Syrian golden hamster [13]): -36%; Activity (Syrian golden hamster [14]): 10% |
| C=C(C)[C@@H]1CC[C@]2(C)CC[C@]3(C)[C@H](CC[C@@H]4[C@@]5(C)CC[C@H](OC(=O)CCc6cccnc6)C(C)(C)[C@@H]5CC[C@]43C)[C@@H]12 | -8.21 | -10.4 |  |  |  |  |  |  |  |  |
| C=C(C)[C@@H]1CC[C@]2(C)CC[C@]3(C)[C@H](CC[C@@H]4[C@@]5(C)CC[C@H](OC(=O)/C=C/c6cccnc6)C(C)(C)[C@@H]5CC[C@]43C)[C@@H]12 | -13.4 | -15.7 |  |  |  |  |  |  |  |  |
| C=C(C)[C@@H]1CC[C@]2(C)CC[C@]3(C)[C@H](CC[C@@H]4[C@@]5(C)CC[C@H](OC(=O)Cc6ccc(OC)cc6)C(C)(C)[C@@H]5CC[C@]43C)[C@@H]12 |  |  | -4 | 20 | -25 | -5 | 4 | -8 | 24 |  |
| C=C(C)[C@@H]1CC[C@]2(C)CC[C@]3(C)[C@H](CC[C@@H]4[C@@]5(C)CC[C@H](OC(=O)Cc6ccccn6)C(C)(C)[C@@H]5CC[C@]43C)[C@@H]12 | -20.5 | -18.2 |  |  |  |  |  |  |  |  |
| C=C(C)[C@@H]1CC[C@]2(C)CC[C@]3(C)[C@H](CC[C@@H]4[C@@]5(C)CC[C@H](OC(=O)/C=C/c6ccsc6)C(C)(C)[C@@H]5CC[C@]43C)[C@@H]12 | -16.9 | -21.5 |  |  |  |  |  |  |  |  |
| C=C(C)[C@@H]1CC[C@]2(C)CC[C@]3(C)[C@H](CC[C@@H]4[C@@]5(C)CC[C@H](OC(=O)/C=C/c6ccco6)C(C)(C)[C@@H]5CC[C@]43C)[C@@H]12 | -15.8 | -18.5 |  |  |  |  |  |  |  |  |
| C=C(C)[C@@H]1CC[C@]2(C)CC[C@]3(C)[C@H](CC[C@@H]4[C@@]5(C)CC[C@H](OC(=O)/C=C/c6cccs6)C(C)(C)[C@@H]5CC[C@]43C)[C@@H]12 | -12.5 | -14.9 |  |  |  |  |  |  |  |  |
| C=C(C)[C@@H]1CC[C@]2(C)CC[C@]3(C)[C@H](CC[C@@H]4[C@@]5(C)CC[C@H](OC(=O)c6ccc(Cl)cc6)C(C)(C)[C@@H]5CC[C@]43C)[C@@H]12 | -17.8 | -19.6 | 4 | -11 | -27 | -14 | 5 | -14 | 14 |  |
| C=C(C)[C@@H]1CC[C@]2(C)CC[C@]3(C)[C@H](CC[C@@H]4[C@@]5(C)CC[C@H](O)C(C)(C)[C@@H]5CC[C@]43C)[C@@H]12 [LUPEOL] |  |  |  |  |  |  |  |  |  | Activity (Syrian golden hamster [15]): -26%; Activity (Syrian golden hamster [16]): -9%; Activity (Syrian golden hamster [17]): -10%; Activity (Syrian golden hamster [18]): -23%; Activity (Syrian golden hamster [19]): 44%; Activity (Syrian golden hamster [20]): 63% |
| C=C(C)[C@@H]1CC[C@]2(C)CC[C@]3(C)[C@H](CC[C@@H]4[C@@]5(C)CC[C@H](OC(=O)c6ccc7ccccc7n6)C(C)(C)[C@@H]5CC[C@]43C)[C@@H]12 |  |  | 11 | -7 | -27 | -30 | -8 | -20 | -5 |  |
| C=C(C)[C@@H]1CC[C@]2(C)CC[C@]3(C)[C@H](CC[C@@H]4[C@@]5(C)CC[C@H](OC(=O)CNC(=O)c6ccccc6)C(C)(C)[C@@H]5CC[C@]43C)[C@@H]12 | -13.8 | -23.6 |  |  |  |  |  |  |  |  |
